Source: article PMC9621233, “4-Cyanamidobenzenesulfonamide derivatives: a novel class of human and bacterial carbonic anhydrase inhibitors” (Journal of Enzyme Inhibition and Medicinal Chemistry, 2022)

Experiments:
Assay in all cases: stopped-flow CO2 hydration assay, phenol red
[1] = biological target: T1, hCA VII (Homo sapiens, UniProt P43166); format: biochemical; settings: read-out: KI (nM)^a / hCA VII (α-CA)
T1 construct: gene CA7; recombinant, obtained in-house; cytosolic alpha-CA
Source text: stopped-flow CO2 hydration assay, phenol red on hCA VII

[2] = biological target: T2, MscCA; format: biochemical, Mammaliicoccus sciuri; settings: […] TRIS pH […] Na2SO4, […] h preincubation, room temperature; read-out: KI (nM)^a / MscCA (β-CA)
T2 construct: recombinant beta-CA, obtained in-house; earlier published as SauCA

[3] = biological target: T3, StCA1; format: biochemical, Salmonella enterica subsp. enterica serovar Typhimurium; settings: […] TRIS pH […] Na2SO4, […] h preincubation, room temperature; read-out: KI (nM)^a / StCA1 (β-CA)
T3 construct: recombinant beta-CA, obtained in-house

[4] = biological target: T4, hCA XIII (Homo sapiens, UniProt Q8N1Q1); format: biochemical; settings: read-out: KI (nM)^a / hCA XIII (α-CA)
T4 construct: gene CA13; recombinant, obtained in-house; cytosolic alpha-CA
T4 sequence (Q8N1Q1 whole entry): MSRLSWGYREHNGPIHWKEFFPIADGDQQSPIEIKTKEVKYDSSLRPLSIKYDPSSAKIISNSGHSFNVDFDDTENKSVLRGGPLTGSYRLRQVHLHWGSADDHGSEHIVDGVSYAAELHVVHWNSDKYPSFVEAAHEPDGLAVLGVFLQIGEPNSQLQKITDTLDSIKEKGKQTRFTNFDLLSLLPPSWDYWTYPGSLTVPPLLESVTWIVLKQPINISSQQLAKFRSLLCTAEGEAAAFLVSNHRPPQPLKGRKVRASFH
Source text: stopped-flow CO2 hydration assay, phenol red on hCA XIII

[5] = biological target: T5, StCA2; format: biochemical, Salmonella enterica subsp. enterica serovar Typhimurium; settings: […] TRIS pH […] Na2SO4, […] h preincubation, room temperature; read-out: KI (nM)^a / StCA2 (β-CA)
T5 construct: recombinant beta-CA, obtained in-house

[6] = biological target: T6, hCA II (Homo sapiens, UniProt P00918); format: biochemical; settings: read-out: KI (nM)^a / hCA II (α-CA)
T6 construct: gene CA2; recombinant, obtained in-house; cytosolic alpha-CA
Source text: stopped-flow CO2 hydration assay, phenol red on hCA II

[7] = biological target: T7, hCA I (Homo sapiens, UniProt P00915); format: biochemical; settings: read-out: KI (nM)^a / hCA I (α-CA)
T7 construct: gene CA1; recombinant, obtained in-house; cytosolic alpha-CA
T7 sequence (P00915 2-261): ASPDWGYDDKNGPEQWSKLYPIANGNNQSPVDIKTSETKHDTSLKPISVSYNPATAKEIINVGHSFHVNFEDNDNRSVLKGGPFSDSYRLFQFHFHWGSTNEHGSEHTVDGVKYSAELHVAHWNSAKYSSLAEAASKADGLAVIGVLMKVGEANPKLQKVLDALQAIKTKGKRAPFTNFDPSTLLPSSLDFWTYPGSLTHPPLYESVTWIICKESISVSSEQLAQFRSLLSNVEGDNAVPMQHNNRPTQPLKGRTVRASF
Source text: stopped-flow CO2 hydration assay, phenol red on hCA I

T1 sequence (P43166 whole entry): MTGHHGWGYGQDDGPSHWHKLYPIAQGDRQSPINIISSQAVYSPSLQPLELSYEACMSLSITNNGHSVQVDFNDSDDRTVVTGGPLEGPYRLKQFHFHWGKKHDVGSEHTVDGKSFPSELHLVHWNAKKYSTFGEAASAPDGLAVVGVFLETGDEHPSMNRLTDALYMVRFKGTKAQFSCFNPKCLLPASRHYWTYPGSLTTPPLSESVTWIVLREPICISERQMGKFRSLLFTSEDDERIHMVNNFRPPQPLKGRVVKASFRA

SMILES	Ki [1] [nM]	Ki [2] [nM]	Ki [3] [nM]	Ki [4] [nM]	Ki [5] [nM]	Ki [6] [nM]	Ki [7] [nM]
CCCCN(C#N)c1ccc(S(N)(=O)=O)cc1 [compound 10, 4-(N-Butylcyanamido)benzenesulfonamide]	1.3	4480	62.7	70.7	426	32	16.4
CN(C#N)c1ccc(S(N)(=O)=O)cc1 [compound 8, 4-(N-Methylcyanamido)benzenesulfonamide]	13.8	1580	52.7	117	200	29.2	557
N#CN(c1ccc(S(N)(=O)=O)cc1)C1CCCCC1 [compound 14, 4-(N-Cyclohexylcyanamido)benzenesulfonamide]	1.9	5360	69.5	83.8	579	82.3	50.6
N#CN(Cc1ccc(Br)cc1)c1ccc(S(N)(=O)=O)cc1 [compound 17, 4-(N-(4-Bromobenzyl)cyanamido)benzenesulfonamide]	2.4	9590	73.1	53.1	750	93.3	389
C=CCN(C#N)c1ccc(S(N)(=O)=O)cc1 [compound 15, 4-(N-Allylcyanamido)benzenesulfonamide]	2.3	5100	51.2	97.7	645	54.1	74.7
CCCCCCN(C#N)c1ccc(S(N)(=O)=O)cc1 [compound 11, 4-(N-Hexylcyanamido)benzenesulfonamide]	1.5	6880	54.6	83	718	5.3	9.3
CCN(C#N)c1ccc(S(N)(=O)=O)cc1 [compound 9, 4-(N-Ethylcyanamido)benzenesulfonamide]	17.9	3150	61.5	476	367	45.3	88.6
N#CN(Cc1ccccc1)c1ccc(S(N)(=O)=O)cc1 [compound 16, 4-(N-Benzylcyanamido)benzenesulfonamide]	2	9360	50.7	67.8	692	61.4	67.3
CCCCCCCCCCCCCCCCCCN(C#N)c1ccc(S(N)(=O)=O)cc1 [compound 13, 4-(N-Octadecylcyanamido)benzenesulfonamide]	2.2	9170	66.1	155	791	9.5	17.3
CCCCCCCN(C#N)c1ccc(S(N)(=O)=O)cc1 [compound 12, 4-(N-Heptylcyanamido)benzenesulfonamide]	1.7	7190	58.8	31.5	676	7.1	38.2
